US12479823B2, “Compound for use in retinal diseases” (ZHUHAI UNITED LABORATORIES CO., LTD., priority 2018, dated 2025)
Read-outs that look alike come from different tables or passages of the source.

Assays:
[1] = In vitro aldehyde capture capacity test (complexing with nonanal, HPLC at 254 nm); settings: for Area under the curve AUC / Slope (linear equation of percentage content of complexed products vs time): nonanal 1.0 eq, compound 1.0 eq, 20-23° C., 10-300 min, HPLC 254 nm; for Slope (linear equation of percentage content of complexed products vs time): in %/min
Experimental: Objective: dry eye disease is caused by inflammation in eyes, wherein the inflammation may produce aldehydes that will accelerate the inflammation symptoms and worsen the dry eye disease if not eliminated in time. In the experiment, a better compound was selected according to the complexing capacity of the drug and aldehydes in vivo by simulating the in vivo environment.
Procedures: Sulfobutyl-B-cyclodextrin (310 mg) was dissolved in a phosphate buffer (1.25 mL) to prepare a solution.
Nonanal (5.0 mg, 32 μmol, 1.0 eq) and triolein (300 mg) were added to a reaction flask at room temperature, after addition of the prepared solution described above, linoleic acid (300 mg) was added, and finally a dimethyl sulfoxide (0.15 ml) solution containing the compound (32 μmol, 1.0 eq) of the present disclosure was added; the reaction solution was reacted at 20-23° C.
The reaction solution was reacted under stirring for 10 min, 100 min, 200 min, and 300 min respectively, and sampled for high performance liquid chromatography after the solution was stratified after standing for 2 min.
Sampling method: 25 μl of an upper emulsified layer and 50 μl of a lower aqueous phase were sampled by a pipette, and samples were diluted with 1 mL of methanol.
The ultraviolet absorption of the nonanal was weak at 254 nm, so the nonanal had little overall effect on the content of complexed products. Therefore, the percentage contents of complexes at 254 nm under high performance liquid chromatography were compared to observe aldehyde capture and complexing capacities, as shown in FIG. 1 and Table 1:
Taking The compound 7 as an example, after 300 min of reaction, the analytical method for HPLC was XBRIGE 2.5 μm, 3.0*100 mm 5-80CD_XBEH_12 min_0.8.1 cm;
Retention time 6.689 min, 6.787 min, 6.966 min, and 7.102 min were absorption peaks of products complexed with monomolecular aldehyde;
Retention time 8.905 min, 9.010 min, and 9.075 min were absorption peaks of products complexed with bimolecular aldehyde.

[2] = Corneal and plasma drug concentration after eye drops in rats; assay type: in vivo; settings: for entry into the cornea by eye drops: SD rats, result in words
Experimental: Objective: To Study the Ratio of Corneal to Plasma Drug Concentration After Eye Drops in Rats
Experimental Materials: Male SD Rats, 200-300 g, 7-9 weeks old, Shanghai Lingchang
Experimental procedures: The candidate compound was prepared as a clear solution, and administered to SD rats by eye drops. The vehicle for eye drops was 10% hydroxypropyl β-cyclodextrin aqueous solution, and the drug concentration in the eye drops was 5 mg/mL. Corneal and whole blood samples were collected at 1 and 4 hours, respectively. The corneal samples was homogenized in 15 mM phosphate buffer (PBS): MeoH (2:1, v: v) buffer, the whole blood samples were centrifuged at 3000 r for 10 min, and the supernatant plasma samples were separated. 20 μL of the plasma samples and homogenate samples were mixed with 400 μL of acetonitrile precipitated proteins containing an internal standard, respectively, and 2 μL of the supernatant was injected by centrifugation. The plasma concentrations were quantified by LC-MS/MS analysis; the drug concentrations in the cornea and plasma were measured respectively according to different time points, and the ratio of corneal/plasma concentrations was calculated.

CYP2C9 = molecular target: T1, CYP2C9 (Homo sapiens, UniProt P11712); test: Inhibition of human liver microsomal cytochrome P450 CYP2C9; assay type: in vitro ADME; settings: human liver microsomes, probe substrate, NADPH
T1 construct: fused human liver microsomes were selected as a CYP450 enzyme source; from tissue; host or cells: pooled ("fused") human liver microsomes
T1 sequence (P11712 whole entry, the tested form may be a part): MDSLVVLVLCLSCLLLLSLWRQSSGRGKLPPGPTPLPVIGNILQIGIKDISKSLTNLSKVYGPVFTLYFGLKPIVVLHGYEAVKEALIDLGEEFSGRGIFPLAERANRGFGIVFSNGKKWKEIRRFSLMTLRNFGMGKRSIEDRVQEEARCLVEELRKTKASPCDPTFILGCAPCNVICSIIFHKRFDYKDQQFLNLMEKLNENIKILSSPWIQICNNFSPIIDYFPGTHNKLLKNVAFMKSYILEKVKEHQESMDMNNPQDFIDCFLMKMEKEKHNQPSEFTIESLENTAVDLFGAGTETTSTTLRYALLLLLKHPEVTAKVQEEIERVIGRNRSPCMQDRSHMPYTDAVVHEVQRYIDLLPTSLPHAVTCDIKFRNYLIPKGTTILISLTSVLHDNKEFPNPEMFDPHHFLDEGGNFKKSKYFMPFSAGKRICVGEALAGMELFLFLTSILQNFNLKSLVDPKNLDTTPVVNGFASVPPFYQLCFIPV
Source text: (§1) Objective: To study the inhibitory effect of compounds on human liver microsomal cytochrome P450. Experimental procedures: In the study on inhibition of the compounds on the human liver microsomal cytochrome P450 (CYP1A2, CYP2C9, CYP2C19, CYP2D6 and CYP3A4), fused human liver microsomes were selected as a CYP450 enzyme source. […]

CYP2D6 = molecular target: T2, CYP2D6 (Homo sapiens, UniProt P10635); test: Inhibition of human liver microsomal cytochrome P450 CYP2D6; assay type: in vitro ADME; settings: human liver microsomes, probe substrate, NADPH
T2 construct: fused human liver microsomes were selected as a CYP450 enzyme source; from tissue; host or cells: pooled ("fused") human liver microsomes
T2 sequence (P10635 whole entry, the tested form may be a part): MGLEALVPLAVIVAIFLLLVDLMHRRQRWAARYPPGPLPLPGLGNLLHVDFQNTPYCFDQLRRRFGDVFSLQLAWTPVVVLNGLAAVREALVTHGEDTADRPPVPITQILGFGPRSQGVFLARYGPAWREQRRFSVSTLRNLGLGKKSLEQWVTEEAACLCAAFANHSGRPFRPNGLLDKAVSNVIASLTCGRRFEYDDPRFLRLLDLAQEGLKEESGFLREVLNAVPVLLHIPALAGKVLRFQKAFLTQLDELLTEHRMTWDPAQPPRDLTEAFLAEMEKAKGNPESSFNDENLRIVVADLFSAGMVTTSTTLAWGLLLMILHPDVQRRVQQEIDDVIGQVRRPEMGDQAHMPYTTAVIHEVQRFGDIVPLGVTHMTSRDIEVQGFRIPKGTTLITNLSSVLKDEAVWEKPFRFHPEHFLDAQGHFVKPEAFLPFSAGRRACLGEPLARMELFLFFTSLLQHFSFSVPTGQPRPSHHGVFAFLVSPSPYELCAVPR
Source text: as §1

CYP1A2 = molecular target: T3, CYP1A2 (Homo sapiens, UniProt P05177); test: Inhibition of human liver microsomal cytochrome P450 CYP1A2; assay type: in vitro ADME; settings: human liver microsomes, probe substrate, NADPH
T3 construct: fused human liver microsomes were selected as a CYP450 enzyme source; from tissue; host or cells: pooled ("fused") human liver microsomes
T3 sequence (P05177 1-516): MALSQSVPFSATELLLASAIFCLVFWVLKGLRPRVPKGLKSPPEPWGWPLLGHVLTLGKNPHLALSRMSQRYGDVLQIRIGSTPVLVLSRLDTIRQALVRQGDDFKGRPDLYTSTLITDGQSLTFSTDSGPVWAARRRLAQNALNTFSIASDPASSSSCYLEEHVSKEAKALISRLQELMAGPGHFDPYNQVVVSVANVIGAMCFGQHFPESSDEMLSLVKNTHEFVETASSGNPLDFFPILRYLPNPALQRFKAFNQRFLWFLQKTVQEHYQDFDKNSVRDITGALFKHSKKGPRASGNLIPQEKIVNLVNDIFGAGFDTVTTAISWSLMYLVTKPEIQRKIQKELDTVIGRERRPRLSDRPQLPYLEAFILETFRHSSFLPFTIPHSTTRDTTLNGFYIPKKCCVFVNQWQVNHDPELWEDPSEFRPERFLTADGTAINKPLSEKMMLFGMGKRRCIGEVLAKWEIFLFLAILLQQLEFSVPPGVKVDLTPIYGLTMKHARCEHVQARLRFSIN
Source text: as §1

CYP2C19 = molecular target: T4, CYP2C19 (Homo sapiens, UniProt P33261); test: Inhibition of human liver microsomal cytochrome P450 CYP2C19; assay type: in vitro ADME; settings: human liver microsomes, probe substrate, NADPH
T4 construct: fused human liver microsomes were selected as a CYP450 enzyme source; from tissue; host or cells: pooled ("fused") human liver microsomes
T4 sequence (P33261 whole entry, the tested form may be a part): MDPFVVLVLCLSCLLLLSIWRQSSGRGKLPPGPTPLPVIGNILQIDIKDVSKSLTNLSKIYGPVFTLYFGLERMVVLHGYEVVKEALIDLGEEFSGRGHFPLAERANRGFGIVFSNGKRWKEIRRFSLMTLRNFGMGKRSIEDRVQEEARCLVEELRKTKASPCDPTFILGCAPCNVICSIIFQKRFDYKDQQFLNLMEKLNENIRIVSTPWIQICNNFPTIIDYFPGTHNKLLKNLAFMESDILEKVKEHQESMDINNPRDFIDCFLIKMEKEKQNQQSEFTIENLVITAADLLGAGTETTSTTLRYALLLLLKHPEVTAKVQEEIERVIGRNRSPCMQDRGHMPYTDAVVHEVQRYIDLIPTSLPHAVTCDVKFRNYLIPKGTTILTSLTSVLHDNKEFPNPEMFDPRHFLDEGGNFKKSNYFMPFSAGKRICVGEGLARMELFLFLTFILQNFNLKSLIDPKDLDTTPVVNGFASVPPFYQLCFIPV
Source text: as §1

CYP3A4 = molecular target: T5, CYP3A4 (Homo sapiens, UniProt P08684); test: Inhibition of human liver microsomal cytochrome P450 CYP3A4; assay type: in vitro ADME; settings: human liver microsomes, two probe substrates, NADPH
T5 construct: fused human liver microsomes were selected as a CYP450 enzyme source; from tissue; host or cells: pooled ("fused") human liver microsomes
T5 sequence (P08684 whole entry, the tested form may be a part): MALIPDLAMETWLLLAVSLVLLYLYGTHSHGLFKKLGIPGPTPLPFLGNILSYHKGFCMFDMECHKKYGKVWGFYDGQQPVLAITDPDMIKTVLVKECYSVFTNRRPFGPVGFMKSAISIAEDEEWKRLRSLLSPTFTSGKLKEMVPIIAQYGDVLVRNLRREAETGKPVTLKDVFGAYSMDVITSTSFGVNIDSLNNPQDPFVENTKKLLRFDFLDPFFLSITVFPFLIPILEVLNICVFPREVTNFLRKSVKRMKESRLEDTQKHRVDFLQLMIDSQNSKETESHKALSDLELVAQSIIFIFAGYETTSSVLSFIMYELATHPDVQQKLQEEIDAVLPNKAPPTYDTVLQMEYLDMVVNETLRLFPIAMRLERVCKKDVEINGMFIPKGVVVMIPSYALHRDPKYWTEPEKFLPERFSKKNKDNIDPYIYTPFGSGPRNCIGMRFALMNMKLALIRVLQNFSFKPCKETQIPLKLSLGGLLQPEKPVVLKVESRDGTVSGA
Source text: as §1

SMILES	percentage content of complexed products at 254 nm ([1]; Time 10 min) [%]	percentage content of complexed products at 254 nm ([1]; Time 100 min) [%]	percentage content of complexed products at 254 nm ([1]; Time 200 min) [%]	percentage content of complexed products at 254 nm ([1]; Time 300 min) [%]	Area under the curve AUC [1] [min. Conversion]	Slope (linear equation of percentage content of complexed products vs time) [1]	entry into the cornea by eye drops [2]	IC50 (CYP2C9) [µM]	IC50 (CYP2D6) [µM]	IC50 (CYP1A2) [µM]	IC50 (CYP2C19) [µM]	concentration at 1 h ([2]; male, Sprague-Dawley (SD), rat, cornea, topical, eye drops 5 mg/mL, 1 h, read-out: Corneal Concentration) [nM]	concentration at 4 h ([2]; male, Sprague-Dawley (SD), rat, cornea, topical, eye drops 5 mg/mL, 4 h, read-out: Corneal Concentration) [nM]	Kp at 1 h ([2]; male, Sprague-Dawley (SD), rat, cornea/plasma, topical, eye drops 5 mg/mL, 1 h, read-out: Corneal Concentration/Plasma Concentration C/P ratio)	Kp at 4 h ([2]; male, Sprague-Dawley (SD), rat, cornea/plasma, topical, eye drops 5 mg/mL, 4 h, read-out: Corneal Concentration/Plasma Concentration C/P ratio)	concentration at 1 h ([2]; male, Sprague-Dawley (SD), rat, plasma, topical, eye drops 5 mg/mL, 1 h, read-out: Plasma Concentration) [nM]	concentration at 4 h ([2]; male, Sprague-Dawley (SD), rat, plasma, topical, eye drops 5 mg/mL, 4 h, read-out: Plasma Concentration) [nM]	IC50 (CYP3A4) [µM]
CC(C)(O)c1nc(-c2ccc(N)c(C(C)(C)O)n2)ccc1N [Compound 1]	0.917	4.909	4.383	6.224	1257	0.0157	–	–	–	–	–	–	–	–	–	–	–	–
CC(C)(O)c1nc(Oc2ccc(N)c(C(C)(C)O)n2)ccc1N [Compound 2]	2.658	4.097	4.721	5.796	1271	0.0103	–	–	–	–	–	–	–	–	–	–	–	–
CC(C)(O)c1ncc(-c2cnc(C(C)(C)O)c(N)c2)cc1N [Compound 4]	1.475	7.663	13.353	18.636	3061	0.0589	–	–	–	–	–	–	–	–	–	–	–	–
CC(C)(O)c1cc(F)c(Oc2ccc(N)c(C(C)(C)O)n2)cc1N [Compound 6]	9.738	27.850	37.847	41.686	8953	0.1083	–	–	–	–	–	–	–	–	–	–	–	–
CC(C)(O)c1cc(F)c(-c2cnc(C(C)(C)O)c(N)c2)cc1N [Compound 7]	6.634	20.013	29.424	36.039	6944	0.1002	could enter the cornea by eye drops	–	–	–	–	–	–	–	–	–	–	–
CC(C)(O)c1cc(Cl)c(-c2cnc(C(C)(C)O)c(N)c2)cc1N [Compound 8]	4.117	12.121	15.49	19.873	3879	0.0519	could enter the cornea by eye drops	> 50	> 50	> 50	> 50	1660	167	12	3.72	148	36.4	> 50
CC(C)(O)c1ccc(-n2cc(C(C)(C)O)c(N)cc2=O)cc1N [Compound 9]	12.268	31.427	43.086	48.761	10284	0.1241	–	–	–	–	–	–	–	–	–	–	–	–
